From paper PMC8741243 (Journal of Enzyme Inhibition and Medicinal Chemistry, 2022)
Read-outs that look alike come from different tables or passages of the source.

Legend:
Assay in all cases: stopped-flow CO2 hydration
Assay type in all cases: biochemical
hCA I = target: T1, hCA I (Homo sapiens, UniProt P00915)
T1 construct: gene CA1; recombinant, obtained in-house as described earlier

hCA II = target: T2, hCA II (Homo sapiens, UniProt P00918)
T2 construct: gene CA2; recombinant, obtained in-house as described earlier

VchCAα = target: T3, VchCAα (Vibrio cholerae, UniProt Q9KMP6); conditions: read-out: Ki (μM)^a / VchCAα; […] h preincubation at […] °C; […] HEPES pH […] NaClO4; prodrug, lactone hydrolysed by CA esterase activity
T3 construct: gene VC_A0274
T3 sequence (Q9KMP6 21-239 limits assumed): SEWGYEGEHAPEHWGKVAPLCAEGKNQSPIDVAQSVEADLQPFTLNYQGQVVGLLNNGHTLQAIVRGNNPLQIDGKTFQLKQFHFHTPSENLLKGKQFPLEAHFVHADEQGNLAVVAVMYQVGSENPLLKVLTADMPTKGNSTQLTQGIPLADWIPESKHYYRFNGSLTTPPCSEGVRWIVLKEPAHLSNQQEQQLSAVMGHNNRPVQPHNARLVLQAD

NgCAα = target: T4, NgCAα (Neisseria gonorrhoeae, UniProt Q50940)
T4 construct: gene cah; recombinant, obtained in-house as described earlier
T4 sequence (Q50940 27-252): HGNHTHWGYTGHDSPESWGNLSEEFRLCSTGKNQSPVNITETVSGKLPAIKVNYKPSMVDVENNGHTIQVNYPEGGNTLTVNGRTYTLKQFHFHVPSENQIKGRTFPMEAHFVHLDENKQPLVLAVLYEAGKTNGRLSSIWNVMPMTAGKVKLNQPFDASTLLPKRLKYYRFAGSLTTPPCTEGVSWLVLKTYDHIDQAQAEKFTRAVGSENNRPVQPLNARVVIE

T1 sequence (P00915 2-261): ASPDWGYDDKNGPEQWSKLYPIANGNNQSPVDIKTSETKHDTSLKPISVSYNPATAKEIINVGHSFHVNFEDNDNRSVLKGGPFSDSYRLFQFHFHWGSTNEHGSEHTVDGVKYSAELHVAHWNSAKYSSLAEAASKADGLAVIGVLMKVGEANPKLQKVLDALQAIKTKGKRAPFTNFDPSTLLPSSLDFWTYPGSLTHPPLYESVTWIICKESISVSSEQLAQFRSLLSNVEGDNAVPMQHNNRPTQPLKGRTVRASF

Work on Nc1ccc2c(C(F)(F)F)cc(=O)oc2c1 [compound 7, 7] yielded a Ki (hCA I; read-out: Ki (μM)^a / hCA I) of 940 µM, a Ki (hCA II; read-out: Ki (μM)^a / hCA II) of 733 µM and a Ki (VchCAα) of 95 µM. It also gave a Ki (NgCAα; read-out: Ki (μM)^a / NgCAα) of 97.1 µM.
For CC(=O)c1cc2ccc(O)cc2oc1=O [compound 14, 14], the Ki (hCA I; read-out: Ki (μM)^a / hCA I) was 470 µM, the Ki (hCA II; read-out: Ki (μM)^a / hCA II) was 786 µM and the Ki (VchCAα) was 303 µM. For the same compound, the Ki (NgCAα; read-out: Ki (μM)^a / NgCAα) was 395 µM.
CCOC(=O)c1cc2ccc(O)cc2oc1=O [compound 13, 13] was tested, and the Ki (hCA I; read-out: Ki (μM)^a / hCA I) was 900 µM, the Ki (hCA II; read-out: Ki (μM)^a / hCA II) was 961 µM and the Ki (VchCAα) was 432 µM. It also gave a Ki (NgCAα; read-out: Ki (μM)^a / NgCAα) of 395 µM.
In the case of O=c1ccc2cc(O)ccc2o1 [compound 2, 2], the Ki (hCA I; read-out: Ki (μM)^a / hCA I) is reported as 192 µM, the Ki (hCA II; read-out: Ki (μM)^a / hCA II) is reported as 683 µM and the Ki (VchCAα) is reported as 77.5 µM. The Ki (NgCAα; read-out: Ki (μM)^a / NgCAα) was 92.4 µM.
Cc1cc2ccc(O)cc2oc1=O [compound 10, 10] was tested, and the Ki (hCA I; read-out: Ki (μM)^a / hCA I) was 137 µM, the Ki (hCA II; read-out: Ki (μM)^a / hCA II) was 297 µM and the Ki (VchCAα) was 66.8 µM. For the same compound, the Ki (NgCAα; read-out: Ki (μM)^a / NgCAα) was 68 µM.
O=c1ccc2ccccc2o1 [compound 1, simple unsubstituted coumarin 1] showed a Ki (VchCAα) of 94.7 µM and a Ki (NgCAα; read-out: Ki (μM)^a / NgCAα) of 81.6 µM.
Compound CC(=O)c1c(O)ccc2ccc(=O)oc12 [compound 9, 7-hydroxy-8-acetyl-coumarin] has a Ki (hCA I; read-out: Ki (μM)^a / hCA I) of 949 µM, a Ki (hCA II; read-out: Ki (μM)^a / hCA II) of 646 µM and a Ki (VchCAα) of 39.8 µM. The Ki (NgCAα; read-out: Ki (μM)^a / NgCAα) was 42.5 µM.
Compound O=c1cc(O)c2ccc(O)cc2o1 [compound 12, 12] has a Ki (hCA I; read-out: Ki (μM)^a / hCA I) of 182 µM, a Ki (hCA II; read-out: Ki (μM)^a / hCA II) of 758 µM and a Ki (VchCAα) of 66 µM. The Ki (NgCAα; read-out: Ki (μM)^a / NgCAα) was 77.6 µM.
Compound O=c1cc(O)c2ccccc2o1 [compound 4, 4] has a Ki (hCA I) of 394 µM, a Ki (hCA II) of 513 µM and a Ki (VchCAα) of 92.2 µM. For the same compound, the Ki (NgCAα) was 94.7 µM.
CCOC(=O)Cc1cc(=O)oc2cc(O)ccc12 [compound 11, 11] showed a Ki (hCA I; read-out: Ki (μM)^a / hCA I) of 749 µM, a Ki (hCA II; read-out: Ki (μM)^a / hCA II) of 876 µM and a Ki (VchCAα) of 439 µM. The Ki (NgCAα; read-out: Ki (μM)^a / NgCAα) was 469 µM.
Work on CCN(CC)c1ccc2c(C)cc(=O)oc2c1 [compound 8, 4-methyl-7-diethylamino-coumarin] yielded a Ki (hCA I; read-out: Ki (μM)^a / hCA I) of 517 µM, a Ki (hCA II; read-out: Ki (μM)^a / hCA II) of 559 µM and a Ki (VchCAα) of 53.9 µM. For the same compound, the Ki (NgCAα; read-out: Ki (μM)^a / NgCAα) was 28.6 µM.
O=c1ccc2ccc(O)cc2o1 [compound 3, 3] showed a Ki (VchCAα) of 68.5 µM and a Ki (NgCAα; read-out: Ki (μM)^a / NgCAα) of 77.1 µM.
In the case of O=c1oc2ccccc2cc1O [compound 5, 5], the Ki (hCA I; read-out: Ki (μM)^a / hCA I) is reported as 490 µM, the Ki (hCA II; read-out: Ki (μM)^a / hCA II) is reported as 625 µM and the Ki (VchCAα) is reported as 290 µM. It also gave a Ki (NgCAα; read-out: Ki (μM)^a / NgCAα) of 110 µM.
